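Each compound was tested at five concentrations against cells in 96-well plates for 48 hours. GI50: concentration for 50% inhibition of growth.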 The source made the active and inactive calls. No stated cut-off is given here; in the data, active = GI50 up to about 1.1 µM and inactive = higher.

The values that follow come from ChEMBL document CHEMBL1201862, “PubChem BioAssay data set” (2004).

Test systems include M14; MDA-N; T47D; NCI/ADR-RES; HL-60; U-251; HCC 2998; SF-268; Malme-3M; SK-MEL-28; SK-OV-3; NCI-H522; SK-MEL-2; HCT-116; CAKI-1; SK-MEL-5; PC-3; NCI-H226; SNB-75.
Experiment in all cases: NCI-60 cell line screen, 48 h

For the compound `O=C(O)Cn1ccc(=O)c2ccc([N+](=O)[O-])cc21`, the GI50 with M14, in the assay on MDA-N, with T47D, with NCI/ADR-RES, in the assay with HL-60 and in the assay with U-251 was > 100 µM (inactive) each time. Further, the GI50 with HCC 2998, with SF-268, in the assay with Malme-3M, in the assay on SK-MEL-28, in the assay with SK-OV-3 and in the assay with NCI-H522 was > 100 µM (inactive) each time. The GI50 in the assay with SK-MEL-2, with HCT-116, in the assay on CAKI-1, with SK-MEL-5, in the assay on PC-3 and in the assay with NCI-H226 was > 100 µM (inactive) in each case. Moreover, the GI50 in the assay with SNB-75 is 38.4 µM (inactive).

On to `OC[C@H]1N[C@H](CO)[C@@H](O)[C@H]1O`, for which the GI50 was > 100 µM (inactive) with M14; > 10 µM (inactive) with MDA-N; > 100 µM (inactive) with T47D; > 100 µM (inactive) in the assay with NCI/ADR-RES; > 100 µM (inactive) in the assay on HL-60; > 100 µM (inactive) with U-251. Further, the GI50 in the assay on HCC 2998, in the assay on SF-268, with Malme-3M, in the assay with SK-MEL-28, in the assay with SK-OV-3 and in the assay with NCI-H522 was > 100 µM (inactive) each time. The GI50 in the assay on SK-MEL-2, with HCT-116, with CAKI-1, with SK-MEL-5, in the assay with PC-3 and in the assay on NCI-H226 was > 100 µM (inactive) throughout. The GI50 in the assay on SNB-75 is > 100 µM (inactive).

As to `CC(=O)Nc1cc(C(=O)Nc2cc(C(=O)Nc3cc(C(=O)Nc4cc(C(=O)Nc5cc(C(=O)NCCC(=O)NCCCN(C)C)n(C)c5)n(C)c4)n(C)c3)n(C)c2)n(C)c1`, the GI50 is > 100 µM (inactive) with M14; 34.9 µM (inactive) in the assay with MDA-N; 31.5 µM (inactive) in the assay on T47D; > 100 µM (inactive) with NCI/ADR-RES; 41.2 µM (inactive) in the assay on HL-60; 67.9 µM (inactive) with U-251. Also, the GI50 is 50.4 µM (inactive) in the assay with HCC 2998; 71.3 µM (inactive) in the assay with SF-268; 27.5 µM (inactive) in the assay on Malme-3M; 67.6 µM (inactive) with SK-MEL-28; > 100 µM (inactive) in the assay with SK-OV-3; 17.9 µM (inactive) in the assay with NCI-H522. In addition, the GI50 in the assay on SK-MEL-2 was > 100 µM (inactive); in the assay on HCT-116 it was 37.3 µM (inactive); with CAKI-1, 19.5 µM (inactive); in the assay on SK-MEL-5 it was > 100 µM (inactive); in the assay with PC-3, > 100 µM (inactive); with NCI-H226 it was > 100 µM (inactive). Further, the GI50 with SNB-75 was > 100 µM (inactive).

`CC(C)(C)C(=O)C(CC(=O)c1ccccc1)C(=O)C(C)(C)C`: the GI50 in the assay with M14, with MDA-N, with T47D, in the assay on NCI/ADR-RES, in the assay with HL-60 and in the assay with U-251 was > 100 µM (inactive) throughout. The GI50 in the assay on HCC 2998 was > 100 µM (inactive); in the assay on SF-268, 83.9 µM (inactive); in the assay with Malme-3M, > 100 µM (inactive); in the assay with SK-MEL-28, > 100 µM (inactive); in the assay with SK-OV-3, > 100 µM (inactive); in the assay with NCI-H522, > 100 µM (inactive). Moreover, the GI50 in the assay with SK-MEL-2, with HCT-116, in the assay with CAKI-1, in the assay with SK-MEL-5, with PC-3 and in the assay on NCI-H226 was > 100 µM (inactive) throughout. Also, the GI50 with SNB-75 is 15.3 µM (inactive).

On to `CN1CCCC2C(c3ccccc3)C(C3=NCCCC3)C(c3ccccc3)CC21` (stereo not given), for which the GI50 in the assay with M14 was 20.7 µM (inactive); with MDA-N, 20.2 µM (inactive); with T47D, > 100 µM (inactive); in the assay with NCI/ADR-RES, 53.8 µM (inactive); with HL-60, 31.8 µM (inactive); with U-251, 32.2 µM (inactive). Besides, the GI50 in the assay with HCC 2998 was 15.6 µM (inactive); in the assay on SF-268, 59.3 µM (inactive); with Malme-3M it was 19.6 µM (inactive); with SK-MEL-28, 16.2 µM (inactive); in the assay with SK-OV-3 it was > 100 µM (inactive); in the assay with NCI-H522 it was 17 µM (inactive). Further, the GI50 was > 100 µM (inactive) in the assay on SK-MEL-2; 15.9 µM (inactive) with HCT-116; > 100 µM (inactive) in the assay with CAKI-1; 16.9 µM (inactive) in the assay with SK-MEL-5; 44.7 µM (inactive) in the assay on PC-3; > 100 µM (inactive) in the assay on NCI-H226. Further, the GI50 in the assay on SNB-75 is 13.6 µM (inactive).

With `C1=CC2C=CC(C=C1)P2c1ccccc1` (stereo not given), the GI50 in the assay with M14, with MDA-N, with T47D, in the assay with NCI/ADR-RES, in the assay on HL-60 and in the assay on U-251 was > 100 µM (inactive) throughout. Moreover, the GI50 is 0.0175 µM (active) with HCC 2998; > 100 µM (inactive) in the assay on SF-268; > 100 µM (inactive) in the assay with Malme-3M; > 100 µM (inactive) in the assay with SK-MEL-28; > 100 µM (inactive) in the assay on SK-OV-3; > 100 µM (inactive) in the assay on NCI-H522. Moreover, the GI50 in the assay on SK-MEL-2, in the assay with HCT-116, in the assay on CAKI-1, in the assay with SK-MEL-5, in the assay on PC-3 and in the assay with NCI-H226 was > 100 µM (inactive) each time. Moreover, the GI50 in the assay with SNB-75 is > 100 µM (inactive).

As to `COc1ccc(C(C)NNC(=O)c2ccncc2)c(OC)c1` (stereo not given), the GI50 with M14, in the assay with MDA-N, with T47D, with NCI/ADR-RES, with HL-60 and with U-251 was > 100 µM (inactive) throughout. The GI50 in the assay on HCC 2998, in the assay on SF-268, in the assay with Malme-3M, in the assay with SK-MEL-28, in the assay on SK-OV-3 and in the assay on NCI-H522 was > 100 µM (inactive) throughout. Also, the GI50 in the assay on SK-MEL-2, with HCT-116, in the assay with CAKI-1, in the assay with SK-MEL-5, with PC-3 and with NCI-H226 was > 100 µM (inactive) throughout. Besides, in the assay with SNB-75, the GI50 was > 100 µM (inactive).

Take `C[n+]1cccc2ccc3cccnc3c21`: the GI50 was 44.7 µM (inactive) in the assay with M14; 67.5 µM (inactive) in the assay on MDA-N; 21 µM (inactive) with T47D; > 100 µM (inactive) with NCI/ADR-RES; > 100 µM (inactive) in the assay with HL-60; 18.5 µM (inactive) in the assay on U-251. In addition, the GI50 in the assay on HCC 2998 is 49.2 µM (inactive); with SF-268 it was 17.6 µM (inactive); in the assay with Malme-3M, 16.1 µM (inactive); in the assay with SK-MEL-28, 55.7 µM (inactive); in the assay on SK-OV-3, 47.6 µM (inactive); in the assay on NCI-H522 it was 10 µM (inactive). Further, the GI50 in the assay with SK-MEL-2 was 19.3 µM (inactive); in the assay with HCT-116 it was 19.4 µM (inactive); with CAKI-1, > 100 µM (inactive); in the assay with SK-MEL-5 it was 16.2 µM (inactive); with PC-3, 27.5 µM (inactive); in the assay with NCI-H226, 20.6 µM (inactive). The GI50 in the assay with SNB-75 is 23.6 µM (inactive).

Consider `O=c1c2ccccc2n2c(S)nnc2n1-c1ccccc1`, for which the GI50 in the assay on M14, in the assay with MDA-N, in the assay with T47D, in the assay on NCI/ADR-RES, with HL-60 and in the assay on U-251 was > 100 µM (inactive) in each case. Moreover, the GI50 in the assay on HCC 2998, in the assay with SF-268, with Malme-3M, in the assay with SK-MEL-28, in the assay with SK-OV-3 and in the assay on NCI-H522 was > 100 µM (inactive) throughout. For the same compound, the GI50 with SK-MEL-2, in the assay with HCT-116, in the assay on CAKI-1, in the assay on SK-MEL-5, in the assay with PC-3 and in the assay with NCI-H226 was > 100 µM (inactive) each time. In the assay on SNB-75, the GI50 was 21.1 µM (inactive).

On to `CCO/N=C\c1ccc2oc(-c3ccccc3)cc(=O)c2c1`, for which the GI50 was 0.172 µM (active) in the assay with M14; 0.0143 µM (active) in the assay with MDA-N; 27.5 µM (inactive) in the assay on T47D; 0.0501 µM (active) with NCI/ADR-RES; 0.135 µM (active) in the assay on HL-60; 0.628 µM (active) in the assay with U-251. For the same compound, the GI50 is 0.31 µM (active) with HCC 2998; 0.74 µM (active) in the assay on SF-268; 0.184 µM (active) with Malme-3M; 28.8 µM (inactive) in the assay on SK-MEL-28; 0.474 µM (active) in the assay on SK-OV-3; 0.0247 µM (active) with NCI-H522. Moreover, the GI50 with SK-MEL-2 was 0.127 µM (active); with HCT-116, 0.181 µM (active); with CAKI-1, 0.427 µM (active); with SK-MEL-5, 0.146 µM (active); in the assay with PC-3, 0.19 µM (active); with NCI-H226 it was 0.421 µM (active). Besides, the GI50 with SNB-75 is 0.219 µM (active).
